{"source": "paper PMC10560236", "about": "“A protein kinase C α and β inhibitor blunts hyperphagia to halt renal function decline and reduces adiposity in a rat model of obesity-driven type 2 diabetes” (Scientific Reports, 2023)", "key": {"[1]": {"tested_on": "ZSF1 obese rats", "assay": "10-week efficacy study with chow dosing", "type": "in vivo, rat", "excerpt": "Male ZSF1 (ZSF1-Lepr^faLepr^cp/Crl) lean rats (strain code #379) and ZSF1 obese rats (strain code #378) were obtained from Charles River Laboratories (Wilmington, MA). Male rats for all groups were obtained at 8–9 weeks of age at which time they were switched to high carbohydrate Purina 5008 chow (27% kcal protein, 17% kcal fat, 57% kcal carbohydrates). At 21–22 weeks of age they were then enrolled in the 10 week study. All groups were maintained on normal Purina 5008 chow for the 10 week study except the Cmpd 1 group, which was provided Purina 5008 chow formulated with 0.744g Cmpd 1 per kg chow (approximately 50 mpk/d Cmpd 1 administration; n = 5 Lean, n = 12 Obese, n = 11 Cmpd 1, n = 11 Food matched—see Fig. 4a). The amount of food provided to the Food matched group each week was determined by the estimated food consumption by the Cmpd 1 group the previous week. For all three ZSF1 obese groups, 3 animals were taken down at study mid-point for an interim analysis. All experimental protocols involving animals were reviewed and approved by the Pfizer Inc. Institutional Animal Care and Use Committee (IACUC). All experiments were performed in accordance with relevant guidelines and regulations, and all methods are reported in accordance with ARRIVE guidelines (https://arriveguidelines.org).\nMale ZSF1 obese rats that had been maintained on Purina 5008 chow were switched to Purina 5008 chow with or without 0.744 g/kg Cmpd 1 at 22 weeks of age. The study duration was 10 weeks. Estimated food consumption monitored weekly. An additional group of ZSF1 obese rats was included which received an amount of Purina 5008 chow to match the previous week’s estimated food consumption by the Cmpd 1 group. Five male ZSF1 lean littermates served as baseline controls. Intermediate blood samples were taken through tail vein. 24-h urine samples at weeks 0, 5 and 10 were collected from animals in metabolic cages. Animals were sacrificed by CO2 asphyxiation followed by blood collection via cardiac puncture and tissues fixation in 10% neutral buffered formalin for histology. Unfixed inguinal white adipose tissue was also collected at study termination for downstream molecular analyses.\nAll assays except the insulin assay were run with the ADVIA 1800 Chemistry System (Siemens Medical Systems Diagnostics, Tarrytown, NY, USA). The serum insulin assay was run using a SpectraMax® Plus384 Absorbance Microplate Reader (Molecular Devices San Jose, CA, USA). Siemens Medical System assay kits 10376501, 10311891, 10335892, and 10335891 were used for cholesterol, low density lipoprotein (LDL)-cholesterol, triglycerides, and glucose, respectively. Roche HDL-C Reagent 3rd generation assay kit 4713257190 was used for high density lipoprotein (HDL)-cholesterol assay. For insulin, an ALPCO Diagnostics assay kit 80-INSMS-E01 was used.\nSamples of formalin-fixed, paraffin embedded (FFPE) liver and kidney were sectioned and stained for Hematoxylin and Eosin (HE) and evaluated microscopically by a board-certified veterinary pathologist blinded to the treatment groups. In the kidney, microscopic features were assigned an end stage renal disease (ESRD) severity score of 1–5 (minimal to severe) using the following criteria: Grade 1 (minimal): < 10% of parenchyma affected, few glomeruli affected and no Bowman’s capsule thickening with only few protein casts and basophilic tubules observed; Grade 2 (mild): 10–25% of renal parenchyma affected, there is scattered thickening of Bowman’s capsule, +/− synechiation; Grade 3 (moderate): 26–50% of renal parenchyma affected, glomerular and tubulointerstitial changes are present; Grade 4 (marked): 51–75% of renal parenchyma affected, glomerular and tubulointerstitial changes are present; Grade 5 (severe): > 75% of renal parenchyma affected, glomerular and tubulointerstitial changes are present. […]"}, "[2]": {"molecular_target": "PKCγ (Homo sapiens, UniProt P05129)", "assay": "Z'-Lyte recombinant enzyme assay, PKCγ", "type": "biochemical", "procedure": "(§1) Half maximal inhibitory concentrations of Cmpd 1 were determined by Z’-Lyte biochemical assays (Life Technologies SelectScreen™ Kinase Profiling Services, Thermo Fisher Scientific). Kinome selectivity was determined at 1 μM Cmpd 1 concentration against a panel of 119 kinases. The original kinome tree in Fig. 1b was taken from Ref.[68]."}, "[3]": {"molecular_target": "PKCβ1 (Homo sapiens, UniProt P05771)", "sequence (P05771 whole entry)": "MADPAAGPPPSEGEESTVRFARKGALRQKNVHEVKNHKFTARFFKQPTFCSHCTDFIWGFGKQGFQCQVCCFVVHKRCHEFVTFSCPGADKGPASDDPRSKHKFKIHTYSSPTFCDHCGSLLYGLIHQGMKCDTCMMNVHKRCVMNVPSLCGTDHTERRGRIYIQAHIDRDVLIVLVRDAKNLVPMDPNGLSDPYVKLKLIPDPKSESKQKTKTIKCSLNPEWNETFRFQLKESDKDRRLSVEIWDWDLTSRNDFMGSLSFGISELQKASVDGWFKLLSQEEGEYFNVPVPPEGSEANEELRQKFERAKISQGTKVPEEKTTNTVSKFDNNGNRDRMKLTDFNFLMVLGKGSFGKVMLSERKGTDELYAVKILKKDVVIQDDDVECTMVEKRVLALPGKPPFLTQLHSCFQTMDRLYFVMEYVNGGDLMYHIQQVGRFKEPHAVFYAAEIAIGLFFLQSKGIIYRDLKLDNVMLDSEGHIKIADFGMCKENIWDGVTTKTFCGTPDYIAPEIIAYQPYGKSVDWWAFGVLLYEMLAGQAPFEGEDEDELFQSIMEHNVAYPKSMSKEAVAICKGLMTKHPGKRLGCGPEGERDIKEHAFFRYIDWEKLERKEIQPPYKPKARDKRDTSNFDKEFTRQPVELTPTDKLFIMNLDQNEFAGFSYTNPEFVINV", "assay": "Z'-Lyte recombinant enzyme assay, PKCβ1", "type": "biochemical", "procedure": "as §1"}, "[4]": {"molecular_target": "T1, PKCι (Homo sapiens, UniProt P41743)", "T1 sequence (P41743 1-596)": "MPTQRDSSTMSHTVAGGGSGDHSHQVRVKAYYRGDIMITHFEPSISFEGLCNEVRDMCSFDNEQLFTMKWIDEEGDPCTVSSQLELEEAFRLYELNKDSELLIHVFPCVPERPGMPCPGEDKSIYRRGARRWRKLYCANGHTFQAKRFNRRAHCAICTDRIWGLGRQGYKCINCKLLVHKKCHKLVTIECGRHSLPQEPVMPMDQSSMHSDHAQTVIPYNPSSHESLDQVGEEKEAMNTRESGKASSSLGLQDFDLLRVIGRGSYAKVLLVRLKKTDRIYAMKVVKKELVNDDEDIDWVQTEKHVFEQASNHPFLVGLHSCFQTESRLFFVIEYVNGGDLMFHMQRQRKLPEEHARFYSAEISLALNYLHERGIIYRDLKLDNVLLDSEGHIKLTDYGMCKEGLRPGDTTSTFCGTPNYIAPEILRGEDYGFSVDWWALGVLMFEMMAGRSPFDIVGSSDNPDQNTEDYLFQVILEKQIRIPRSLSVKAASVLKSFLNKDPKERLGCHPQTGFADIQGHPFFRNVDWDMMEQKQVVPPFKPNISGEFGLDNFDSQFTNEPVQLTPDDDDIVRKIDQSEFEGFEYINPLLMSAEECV", "assay": "Z'-Lyte recombinant enzyme assay, PKCι", "type": "biochemical", "procedure": "as §1"}, "[5]": {"tested_on": "PKCα/β", "assay": "In vivo kinase occupancy profiling of spleens (probe-based chemoproteomics)", "set-up": "species or system rat", "conditions": "Cmpd 1 chow-dosed ZSF1 obese rats; only PKCα/β from over 200 detectable kinases", "procedure": "In vivo kinase profiling Spleens from 22–23 week old ZSF1 obese male rats provided no drug Chow or Cmpd 1 chow (n = 2 each) were snap frozen, pulverized, and approximately 100–150 mg of each sample were sent to ActiveX for analysis using a probe-based chemoproteomics platform to measure the fraction of kinase bound versus unbound by an ATP-competitive inhibitor. A kinase bound by an ATP-competitive inhibitor such as Cmpd 1 will be less accessible to a covalent ATP probe, and will consequently have a reduced peak in quantitative mass spectrometry of the tryptic fragment corresponding to its active site pulled down by the covalent biotinylated ATP probe. Lysates from n = 2 animals for each group were combined for the analysis."}}, "note": "Where “and” joins values, the source holds several entries; their conditions need not be identical. Identical values can stand only once.", "data": [{"smiles": "Cc1ncc(F)c(Nc2n[nH]c3c2CN(C(=O)N2C[C@@H](C)N(CC4CCOCC4)C[C@@H]2C)C3(C)C)n1", "note": "[Cmpd 1, 5-[(2S,5R)-2,5-dimethyl-4-(tetrahydro-2H-pyran-4-ylmethyl)piperazin-l-yl]carbonyl-N-(5-fluoro-2-methylpyrimidin-4-yl)-6,6-dimethyl-1,4,5,6-tetrahydropyrrolo[3,4-c]pyrazol-3-amine]", "values": [{"measurement": "Progressive decline in renal function (uMALB:creatinine ratio, 24-h urinary protein excretion)", "setting": "[1]; 10-week study, same in Food matched group", "result": "virtually halted"}, {"measurement": "Average body weight at study termination", "setting": "[1]; 10 weeks Cmpd 1 chow", "result": "504 g and 504 ± 35 g"}, {"measurement": "Estimated food consumption at study termination", "setting": "[1]; 10 weeks Cmpd 1 chow", "result": 31, "unit": "g/day"}, {"measurement": "Body weight less than Lean animals at study termination", "setting": "[1]; 10 weeks, not statistically different", "result": "approximately 7%"}, {"measurement": "Estimated average food consumption, first three days", "setting": "[1]; Cmpd 1 chow approx. 50 mpk/day", "result": 22, "unit": "g/day"}, {"measurement": "Reduction in food consumption versus Obese group, first three days", "setting": "[1]; Cmpd 1 chow approx. 50 mpk/day", "result": 27, "unit": "%"}, {"measurement": "Animals with liver macrovacuolation score of 0", "setting": "[1]; after 10 weeks of dosing, score 0–3", "result": "five of eight"}, {"measurement": "ESRD score at study termination", "setting": "[1]; blinded histology, versus Obese, comparable to Food matched group", "result": "reduced comparably"}, {"measurement": "Serum cholesterol and triglyceride profile versus Obese group", "setting": "[1]; non-fasting serum", "result": "improved"}, {"measurement": "Serum glucose levels", "setting": "[1]; non-fasting serum", "result": "elevated"}, {"measurement": "Serum AST versus Obese group", "setting": "[1]; non-fasting, 5 weeks, statistically significant, not evident at 10 weeks", "result": "increased"}, {"measurement": "Serum ALT versus Obese group", "setting": "[1]; non-fasting, 10 weeks, statistically significant", "result": "reduced"}, {"measurement": "Serum insulin", "setting": "[1]; non-fasting, week 5 study midpoint", "result": "0.62 (± 0.35) ng/mL"}, {"measurement": "ESRD severity grade of representative kidney image", "setting": "[1]; study endpoint, representative image Fig. 6c", "result": "Grade 1 (Grade 1 (minimal): < 10% of parenchyma affected)"}, {"measurement": "Average body weight at study start", "setting": "[1]; study start, 21–22 weeks of age", "result": 564, "unit": "g"}, {"measurement": "iWAT weight", "setting": "[1]; study termination", "result": "29 ± 5.5", "unit": "g"}, {"measurement": "Increase in adipocyte size in iWAT", "setting": "[1]; study termination, histology, not in Food matched group", "result": "blunted"}, {"measurement": "Average CD45+ cell staining area in iWAT", "setting": "[1]; study termination, immunohistochemistry", "result": "0.045 ± 0.025", "unit": "%"}, {"measurement": "Liver weights", "setting": "[1]; study termination, primarily reflected overall body weight differences", "result": "reduced"}, {"measurement": "IC50", "setting": "[2]", "result": 96, "unit": "nM"}, {"measurement": "IC50", "setting": "[3]", "result": 11, "unit": "nM"}, {"measurement": "IC50", "setting": "[4]", "result": "> 10000", "unit": "nM"}, {"measurement": "Kinase occupancy in spleen", "setting": "[5]", "result": "> 90", "unit": "%"}]}]}
